Measurements from patent publication US10100052B2, “Compounds for the treatment of hepatitis B virus infection” (Gilead Sciences, Inc., priority 2016, dated 2018).

Key:
MT-4 cytotoxicity assay = format: cell-based; conditions: human, five days incubation, Cell Titer Glo
Method: The MT-4 cell line (HTLV-1 transformed, human T lymphoblastoid cells) was obtained from the NIH AIDS Reagent program (Bethesda, Md.). MT-4 cells were maintained in RPMI-1640 supplemented with 10% fetal bovine serum (FBS, Hyclone, Logan, Utah). All cell culture media were also supplemented with 100 Units/mL penicillin, 100 μg/mL streptomycin (Gibco). For the MT-4 cytotoxicity assay, 0.4 μL of serially diluted solutions of certain compounds disclosed herein were added to 40 μL of cell maintenance media in 384-well black, solid bottom plate using a Biomek FX workstation (Beckman Coulter). Two thousand cells in 35 μL were added to each well using a Biotek uFlow Workstation (Biotek). Each assay plate contained 10 μM puromycin (final concentration) and 0.5% DMSO in RPMI-1640 as positive and negative controls, respectively. Assay plates were incubated for five days at 37° C. in an incubator set at 5% CO2 and 90% humidity. After five days, 22 μL of Cell Titer Glo reagent (Promega) was added to the assay plates with a Biotek uFlow Workstation. Plates were subsequently placed on a Perkin Elmer Envision Plate Reader for five minutes before the luminescence signal was read. CC50 values were calculated by non-linear regression using Pipeline Pilot software by applying a four parameter fit equation (Accelrys, San Diego, Calif.) and are reported in the following Table 2.

HBsAg = assay: PHH assay for inhibition of HBsAg; format: cell-based, genotype D (AD38-derived) HBV in primary human hepatocytes; conditions: Hepatitis B virus, 288 h, read-out: HBsAg EC50
Method: Primary human hepatocytes (PHH) (Bioreclamation IVT) were plated on collagen-coated flasks using Plating Media (Life Technologies) containing William's Medium E supplemented with 1% penicillin/streptomycin, 4 μg/mL human recombinant insulin, 2 mM GlutaMAX, 15 mM HEPES, 1 μM dexamethasone, 5% fetal bovine serum, and 0.2% Torpedo Antibiotic Mix (Bioreclamation IVT). After a 4-hour incubation at 37° C., cells were switched to Maintenance Media (Life Technologies) containing William's Medium E supplemented with 0.5% penicillin/streptomycin, 6.25 µg/mL human recombinant insulin, 6.25 μg/mL human transferrin, 6.25 ng/mL selenous acid, 1.25 mg/mL bovine serum albumin, 5.35 μg/mL linoleic acid, 2 mM GlutaMAX, 15 mM HEPES, 0.1 μM dexamethasone, 2% fetal bovine serum, 2% DMSO, and 0.2% Torpedo Antibiotic Mix (Bioreclamation IVT). On the next day, PHH were infected with 500 genome equivalent per cell of genotype D (AD38-derived) HBV in Maintenance Media supplemented with 4% PEG 8000 (Promega). After 24 hour incubation, cells were washed three times with William's Medium E and fed with fresh Maintenance Media. At 3 days after infection, infected PHH cells were seeded on 96-well plates pre-coated with collagen at a density of 65000 cells per well containing serially diluted solutions of certain compounds disclosed herein or DMSO (1% final concentration) in a final volume of 125 μl of Maintenance Media (Life Technologies) containing William's Medium E supplemented with 0.5% penicillin/streptomycin, 6.25 μg/mL human recombinant insulin, 6.25 μg/mL human transferrin, 6.25 ng/mL selenous acid, 1.25 mg/mL bovine serum albumin, 5.35 μg/mL linoleic acid, 2 mM GlutaMAX, 15 mM HEPES, 0.1 μM dexamethasone, 5% fetal bovine serum, 1 mM 1-amininobenzotriaole, and 0.2% Torpedo Antibiotic Mix (Bioreclamation IVT). Media with compounds was replenished every 2-3 days. After an incubation time of 12 days, secreted HBsAg in the supernatant were measured using a multiplex chemiluminescent (Mesoscale discovery, MSD) assay using capture and detection antibody pairs specific for HBsAg. Comparative Example 1 and Comparative Example 2 have the following structures and were prepared according to International Publication No. WO 2015/113990.

Row | SMILES | CC50 at 5 days (MT-4 cytotoxicity assay) [µM] | EC50 (HBsAg) [µM] | CC50 at 5 days (MT-4 cytotoxicity assay; MT-4 cells) [µM]
1 | COCCCOc1cc2c(cc1Cl)-c1cc(=O)c(C(=O)O)cn1N(C)C2 [Example 1, 10-chloro-9-(3-methoxypropoxy)-6-methyl-2-oxo-6,7-dihydro-2H-pyrido[2,1-a]phthalazine-3-carboxylic acid] | 8.9 | 0.363 | –
2 | COCCCOc1cc2c(cc1OC)-c1cc(=O)c(C(=O)O)cn1N(C(C)(C)C)C2 [Example 10, 6-(tert-butyl)-10-methoxy-9-(3-methoxypropoxy)-2-oxo-6,7-dihydro-2H-pyrido[2,1-a]phthalazine-3-carboxylic acid] | – | 0.0016 | > 10
3 | CC(C)(C)N1Cc2cc(OCCOCC(F)(F)F)c(Cl)cc2-c2cc(=O)c(C(=O)O)cn21 [Example 13, 6-(tert-butyl)-10-chloro-2-oxo-9-(2-(2,2,2-trifluoroethoxy)ethoxy)-6,7-dihydro-2H-pyrido[2,1-a]phthalazine-3-carboxylic acid] | – | 0.0588 | 5.2
4 | COCCCOc1cc2c(cc1Cl)-c1cc(=O)c(C(=O)O)cn1N(C(C)(C)COC)C2 [Example 8, 10-chloro-6-(1-methoxy-2-methylpropan-2-yl)-9-(3-methoxypropoxy)-2-oxo-6,7-dihydro-2H-pyrido[2,1-a]phthalazine-3-carboxylic acid] | – | 0.011 | > 10
5 | CCC(C)(C)N1Cc2cc(OCCCOC)c(Cl)cc2-c2cc(=O)c(C(=O)O)cn21 [Example 17, 10-chloro-9-(3-methoxypropoxy)-2-oxo-6-(tert-pentyl)-6,7-dihydro-2H-pyrido[2,1-a]phthalazine-3-carboxylic acid] | – | 0.0295 | > 10
6 | COCCCOc1cc2c(cc1Cl)-c1cc(=O)c(C(=O)O)cn1N(C1(C(F)(F)F)CC1)C2 [Example 3, 10-chloro-9-(3-methoxypropoxy)-2-oxo-6-(1-(trifluoromethyl)cyclopropyl)-6,7-dihydro-2H-pyrido[2,1-a]phthalazine-3-carboxylic acid] | – | 0.0031 | > 10
7 | COCCCOc1cc2c(cc1Cl)-c1cc(=O)c(C(=O)O)cn1N(C(C)(C)CO)C2 [Example 16, 10-chloro-6-(1-hydroxy-2-methylpropan-2-yl)-9-(3-methoxypropoxy)-2-oxo-6,7-dihydro-2H-pyrido[2,1-a]phthalazine-3-carboxylic acid] | – | 0.0669 | > 10
8 | COCCCOc1cc2c(cc1Cl)-c1cc(=O)c(C(=O)O)cn1N(C(C)(C)C(F)(F)F)C2 [Example 9, 10-chloro-9-(3-methoxypropoxy)-2-oxo-6-(1,1,1-trifluoro-2-methylpropan-2-yl)-6,7-dihydro-2H-pyrido[2,1-a]phthalazine-3-carboxylic acid] | – | – | > 10
9 | COCCCOc1cc2c(cc1OC)-c1cc(=O)c(C(=O)O)cn1N(C(C)(C)C(F)(F)F)C2 [Example 15, 10-methoxy-9-(3-methoxypropoxy)-2-oxo-6-(1,1,1-trifluoro-2-methylpropan-2-yl)-6,7-dihydro-2H-pyrido[2,1-a]phthalazine-3-carboxylic acid] | – | 0.0253 | > 10
10 | COCCCOc1cc2c(cc1OC)-c1cc(=O)c(C(=O)O)cn1N(C(C)(C)COC)C2 [Example 11, 10-methoxy-6-(1-methoxy-2-methylpropan-2-yl)-9-(3-methoxypropoxy)-2-oxo-6,7-dihydro-2H-pyrido[2,1-a]phthalazine-3-carboxylic acid] | – | – | > 10
11 | COCCCOc1cc2c(cc1Cl)-c1cc(=O)c(C(=O)O)cn1N(C1(C)CC1)C2 [Example 6, 10-chloro-9-(3-methoxypropoxy)-6-(1-methylcyclopropyl)-2-oxo-6,7-dihydro-2H-pyrido[2,1-a]phthalazine-3-carboxylic acid] | – | – | > 10
12 | COCCCOc1cc2c(cc1Cl)-c1cc(=O)c(C(=O)O)cn1N(C1(C)CC(F)(F)C1)C2 [Example 19, 10-chloro-6-(3,3-difluoro-1-methylcyclobutyl)-9-(3-methoxypropoxy)-2-oxo-6,7-dihydro-2H-pyrido[2,1-a]phthalazine-3-carboxylic acid] | – | 0.0992 | > 10
13 | COCCCOc1cc2c(cc1Cl)-c1cc(=O)c(C(=O)O)cn1N(CC(C)(C)C)C2 [Example 18, 10-chloro-9-(3-methoxypropoxy)-6-neopentyl-2-oxo-6,7-dihydro-2H-pyrido[2,1-a]phthalazine-3-carboxylic acid] | – | 0.168 | > 10
14 | COCCCOc1cc2c(cc1Cl)-c1cc(=O)c(C(=O)O)cn1N(C1(C)CCC1)C2 [Example 7, 10-chloro-9-(3-methoxypropoxy)-6-(1-methylcyclobutyl)-2-oxo-6,7-dihydro-2H-pyrido[2,1-a]phthalazine-3-carboxylic acid] | – | 0.0068 | > 10
15 | COCCCOc1cc2c(cc1Cl)-c1cc(=O)c(C(=O)O)cn1N(C13CC(C1)C3)C2 [Example 5, 6-(bicyclo[1.1.1]pentan-1-yl)-10-chloro-9-(3-methoxypropoxy)-2-oxo-6,7-dihydro-2H-pyrido[2,1-a]phthalazine-3-carboxylic acid] | – | 0.004 | > 10
16 | COCCCOc1cc2c(cc1OC)-c1cc(=O)c(C(=O)O)cn1N(C1(C(F)(F)F)CC1)C2 [Example 14, 10-methoxy-9-(3-methoxypropoxy)-2-oxo-6-(1-(trifluoromethyl)cyclopropyl)-6,7-dihydro-2H-pyrido[2,1-a]phthalazine-3-carboxylic acid] | – | 0.0087 | > 10
17 | [2H]C([2H])([2H])OCCCOc1cc2c(cc1Cl)-c1cc(=O)c(C(=O)O)cn1N(C(C)(C)C)C2 [Example 12, 6-(tert-butyl)-10-chloro-9-(3-(methoxy-d3)propoxy)-2-oxo-6,7-dihydro-2H-pyrido[2,1-a]phthalazine-3-carboxylic acid] | – | 0.0077 | 9.3
18 | COCCCOc1cc2c(cc1Cl)-c1cc(=O)c(C(=O)O)cn1N(C1(C(F)(F)F)CCC1)C2 [Example 4, 10-chloro-9-(3-methoxypropoxy)-2-oxo-6-(1-(trifluoromethyl)cyclobutyl)-6,7-dihydro-2H-pyrido[2,1-a]phthalazine-3-carboxylic acid] | – | 0.0112 | 8.1
